In publication PMC7766225, “Structure-Based Discovery and Bioactivity Evaluation of Novel Aurora-A Kinase Inhibitors as Anticancer Agents via Docking-Based Comparative Intermolecular Contacts Analysis (dbCICA)” (Molecules, 2020):
Where “and” joins values, the source holds several entries; their conditions need not be identical. Equal entries are not always repeated.

Columns and labels:
[1] = tested on: PANC1, PC-3, T-47D and MDA-MB-231 cancer cells; experiment: MTT anti-proliferative assay, four cancer cell lines together; type: cell-based; settings: Homo sapiens; 72 h of incubation; read-out: IC50 values against PANC1, PC-3, T-47D and MDA-MB-231 (range over cell lines)
Experimental: The human cell-lines triple negative breast adenocarcinoma MDA-MB-231, Pancreas adenocarcinoma PANC1, ductal breast carcinoma T-47D and fibroblasts were preserved and expanded in DMEM medium, while the prostate adenocarcinoma PC-3 cells were cultured in RPMI-1640 growth medium. All growth media were supplemented with 10% heat-inactivated fetal bovine serum (FBS). Cells were maintained under standard culture conditions at 37 °C, 5% CO2 in a humidified incubator. […] Cells were counted using conventional hemocytometer and trypan blue dye method. […] In 96-well coated flat bottom microplates, 100 μL cell suspension of PANC1 or T-47D cells were seeded at a density of 7000 cell/well, and 6000 cell/well for MDA-MB-231, PC-3, or fibroblasts, and incubated under the same conditions at 37 °C. After 24 h, each well was treated with the intended drug concentration diluted in 200 μL fresh media after removal of the old 100-μL media. […] Colorimetric absorbance (OD) was measured at 570 nm wavelength using 96-well plate reader (Tecan-Sunrise, Männedorf, Switzerland). […] The safety index for the compounds with specified IC50 values was evaluated via determining their IC50 values against normal Fibroblast cells. […] IC50 values were calculated using nonlinear regression of the dose–response curves using GraphPad Prism software 7.03.

MDA-MB-231 cells = experiment: MTT cytotoxicity/anti-proliferation assay, MDA-MB-231; type: cell-based, human; settings: for IC50: MDA-MB-231, 72 h; for inhibition at 25 µM: MDA-MB-231, 25 µM; for inhibition at 25 µM / inhibition at 50 µM: 72 h; for inhibition at 50 µM: MDA-MB-231, 50 µM
Experimental: (§1) The human cell-lines triple negative breast adenocarcinoma MDA-MB-231, Pancreas adenocarcinoma PANC1, ductal breast carcinoma T-47D and fibroblasts were preserved and expanded in DMEM medium, while the prostate adenocarcinoma PC-3 cells were cultured in RPMI-1640 growth medium. All growth media were supplemented with 10% heat-inactivated fetal bovine serum (FBS). Cells were maintained under standard culture conditions at 37 °C, 5% CO2 in a humidified incubator. At 80% confluency, cells were washed with 5 mL phosphate buffer saline (1X PBS), then incubated for 4 min with 2–3 mL Trypsin-EDTA 0.25% in order to obtain suspended cells and collect them in a known volume of fresh media for cell count. Cells were counted using conventional hemocytometer and trypan blue dye method.
(§2) The five potent hits that have shown anti-Aurora-A Kinase inhibition percentages above 51% at 10 μM upon conducting the kinase enzyme Inhibition assay (Table 5) were further validated using MTT cytotoxicity Assay. This assay includes 3-(4,5-Dimethylthiazol-2-yl)-2,5-diphenyl tetrazolium bromide (MTT) dye, which is a yellowish tetrazole reduced by viable cells into formazan purple color, which detects the normal mitochondrial role in viable cells. In 96-well coated flat bottom microplates, 100 μL cell suspension of PANC1 or T-47D cells were seeded at a density of 7000 cell/well, and 6000 cell/well for MDA-MB-231, PC-3, or fibroblasts, and incubated under the same conditions at 37 °C. After 24 h, each well was treated with the intended drug concentration diluted in 200 μL fresh media after removal of the old 100-μL media. After 72 h incubation, drug-containing media was aspirated and on each well 100 μL phenol-red free media and 15-μL MTT solution (5 mg/mL (wt/vol) PBS). After 3 h of dark incubation at 37 °C, MTT and media were carefully withdrawn from each well, and 200 μL/well DMSO were added. Colorimetric absorbance (OD) was measured at 570 nm wavelength using 96-well plate reader (Tecan-Sunrise, Männedorf, Switzerland).
(§3) The five compounds were prepared in a stock concentrate of 10 mM using cell culture grade DMSO to be utilized in MTT assay. The cytotoxicity of each compound was initially screened on cancer cell-lines at two concentrations: 50 μM and 25 μM in duplicates. […] The safety index for the compounds with specified IC50 values was evaluated via determining their IC50 values against normal Fibroblast cells. It is noteworthy to mention that DMSO concentration was constant on all the wells (i.e., (0.5% v/v or 1 μL/200 μL) per well), for the treated and the control ones. IC50 values were calculated using nonlinear regression of the dose–response curves using GraphPad Prism software 7.03.

T-47D cells = experiment: MTT cytotoxicity/anti-proliferation assay, T-47D; type: cell-based; settings: Homo sapiens, T47D, 72 h
Experimental: as §1, §2, §3

PANC1 cells = experiment: MTT cytotoxicity/anti-proliferation assay, PANC1; type: cell-based, human; settings: for IC50: Panc1, 72 h; for inhibition at 25 µM / inhibition at 50 µM: PANC-1, 72 h; for inhibition at 25 µM: Panc1, 25 µM; for inhibition at 50 µM: Panc1, 50 µM
Experimental: as §1, §2, §3

PC-3 cells = experiment: MTT cytotoxicity/anti-proliferation assay, PC-3; type: cell-based; settings: Homo sapiens; for IC50: PC-3, 72 h; for inhibition at 25 µM: PC-3, 25 µM; for inhibition at 25 µM / inhibition at 50 µM: 72 h; for inhibition at 50 µM: PC-3, 50 µM
Experimental: as §1, §2, §3

Fibroblasts = experiment: MTT cytotoxicity assay on normal fibroblasts (safety index); type: cell-based; settings: Homo sapiens, Fibroblast, 72 h
Experimental: as §1, §2, §3

Aurora-A kinase = target: T1, Aurora-A kinase (Homo sapiens, UniProt O14965); experiment: FRET-based Z'-LYTE kinase enzyme inhibition assay; type: biochemical
T1 construct: purchased Invitrogen (Carlsbad, CA, USA)
T1 sequence (O14965 1-403): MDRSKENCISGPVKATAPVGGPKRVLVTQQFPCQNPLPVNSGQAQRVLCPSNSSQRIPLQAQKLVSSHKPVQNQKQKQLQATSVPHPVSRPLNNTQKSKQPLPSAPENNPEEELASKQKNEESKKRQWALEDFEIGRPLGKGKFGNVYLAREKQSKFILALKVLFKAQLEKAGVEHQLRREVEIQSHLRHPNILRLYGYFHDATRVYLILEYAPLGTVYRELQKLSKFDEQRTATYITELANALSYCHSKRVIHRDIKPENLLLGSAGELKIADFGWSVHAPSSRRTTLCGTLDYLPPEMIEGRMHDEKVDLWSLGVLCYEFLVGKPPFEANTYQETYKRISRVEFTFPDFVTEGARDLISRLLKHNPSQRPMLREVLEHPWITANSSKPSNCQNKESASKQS
Experimental: This bioassay was conducted using Z′-LYTE® kinase assay (Invitrogen, Carlsbad, CA, USA) [68, 69]. This biochemical assay depends on fluorescence emission as detection method utilizing a synthetic fluorescence resonance energy transfer (FRET) peptide with two fluorophores: coumarin that work as donor and fluorescein as acceptor [69]. Each hit or compound was dissolved in DMSO to form 10 mM stock solution. Hits were screened at 10 μM concentration. The bioassay was performed in black 384-well plate. For each assay, 100 nL of tested compound stock solution (10 mM) was mixed with 2.4 μL kinase buffer, 5 μL (peptide substrate/Aurora-A Kinase) mixture, and 2.5 μL ATP solution.
The tests were conducted in duplicates.

[2] = tested on: xenograft models of various cancer types; set-up: method as in PMID 19369091, PMID 14981513, PMID 18160664; settings: cited from earlier work

Compound	IC50 (MDA-MB-231 cells; Homo sapiens)	inhibition at 25 µM (MDA-MB-231 cells; Homo sapiens)	inhibition at 50 µM (MDA-MB-231 cells; Homo sapiens)	inhibition at 25 µM (T-47D cells)	inhibition at 50 µM (T-47D cells)	IC50 (T-47D cells)	IC50 (PANC1 cells; Homo sapiens, PANC-1, 72 h)	inhibition at 25 µM (PANC1 cells; Homo sapiens)	inhibition at 50 µM (PANC1 cells; Homo sapiens)	IC50 (PC-3 cells)	inhibition at 25 µM (PC-3 cells)	inhibition at 50 µM (PC-3 cells)	inhibition at 25 µM (Fibroblasts)	inhibition at 50 µM (Fibroblasts)	IC50 (Fibroblasts)	also measured
COc1ccc(C(=O)C2=NON3O[C@@]23C(=O)c2ccc(OC)cc2)cc1 (stereo partly shown) [Hit 85]	11 ± 0.43 µM	82.3 ± 0.006%	87.7 ± 0.001%	84.6 ± 0.002%	86 ± 0.002%	8.8 ± 0.74 µM	3.5 µM	92.97 ± 0.004%	94.1 ± 0.001%	8.2 ± 1.4 µM	77 ± 0.007%	87.3 ± 0.003%	45.4 ± 0.05%	83.4 ± 0.01%	27.5 ± 1.5 µM	IC50 [1]: 3.5 to 11 µM; IC50 (PANC1 cells): 3.54 ± 0.11 µM; IC50 (Aurora-A kinase; IC50, 0.1–100 μM, duplicates, nonlinear regression): 4.29 µM and 4.3 µM; Hill Slope (Aurora-A kinase; dose-response curve, GraphPad Prism): 1.70; inhibition at 10 µM (Aurora-A kinase; read-out: % Inhibition at 10 µM): 56%
Cc1cc(Nc2cc(N3CCN(C)CC3)nc(Sc3ccc(NC(=O)C4CC4)cc3)n2)[nH]n1 [Tozasertib/(VX-680), Tozasertib, reference compound]	~7.6 µM	81 ± 0.008%	87 ± 0.007%	53.4 ± 0.02%	80.9 ± 0.01%	17.9 ± 1.64 µM	~7.6 µM	80.9 ± 0.005%	89.3 ± 0.015%	21.4 ± 1.6 µM	49.5 ± 0.006%	68.7 ± 0.011%	85 ± 0.006%	89 ± 0.005%	9.2 ± 0.6 µM	IC50 (MDA-MB-231 cells): 7.7 ± 0.65 µM; reduced the tumor size [2]: 22–98%
